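Results reflect a 48-hour exposure of cells in 96-well plates to compound at five concentrations. Abbreviation: GI50, concentration required for 50% inhibition of growth.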 Activity calls are given as the source filed them. Cut-off read from the data, not from the text of the source: active = GI50 up to about 1.1 µM and inactive = higher.
What was measured:
Assay in all cases: NCI-60 cell line screen, 48 h
EKVX = tested on: EKVX
NCI-H460 = tested on: NCI-H460
A498 = tested on: A498
SN12C = tested on: SN12C
OVCAR-8 = tested on: OVCAR-8
U-251 = tested on: U-251
SK-MEL-2 = tested on: SK-MEL-2
A549 = tested on: A549
COLO 205 = tested on: COLO 205
SW-620 = tested on: SW-620
NCI-H226 = tested on: NCI-H226
RXF 393 = tested on: RXF 393
SNB-19 = tested on: SNB-19
786-0 = tested on: 786-0
TK-10 = tested on: TK-10
M14 = tested on: M14
MDA-MB-231 = tested on: MDA-MB-231
NCI/ADR-RES = tested on: NCI/ADR-RES
Hs-578T = tested on: Hs-578T

Measured: GI50

CCOC(=O)c1sc(Nc2cc(Cl)ccc2Cl)nc1C
inactive: EKVX > 100 µM | NCI-H460 > 100 µM | A498 > 100 µM | SN12C 61.9 µM | OVCAR-8 96.4 µM | U-251 > 100 µM | SK-MEL-2 95.1 µM | A549 72.3 µM | COLO 205 > 100 µM | SW-620 > 100 µM | NCI-H226 83.2 µM | RXF 393 > 100 µM | SNB-19 > 100 µM | 786-0 > 100 µM | TK-10 > 100 µM

CC1=CCC2CC1NC(=O)CCOCCC(=O)NC2(C)C (configuration not stated)
inactive: M14 > 100 µM | NCI-H460 > 100 µM | A498 > 100 µM | SN12C > 100 µM | OVCAR-8 > 100 µM | U-251 > 100 µM | SK-MEL-2 > 100 µM | A549 > 100 µM | COLO 205 > 100 µM | SW-620 > 100 µM | MDA-MB-231 > 100 µM | NCI-H226 > 100 µM | RXF 393 > 100 µM | SNB-19 > 100 µM | 786-0 > 100 µM | TK-10 > 100 µM | NCI/ADR-RES > 100 µM

CCN(CC)CCCNC(=O)C1COc2cc(-c3cc(=O)c4ccccc4o3)ccc2O1 (configuration not stated)
inactive: M14 22.1 µM | EKVX > 100 µM | NCI-H460 > 100 µM | A498 48.2 µM | SN12C 45.6 µM | OVCAR-8 53.7 µM | U-251 37.8 µM | A549 44.1 µM | COLO 205 25.1 µM | SW-620 48.5 µM | NCI-H226 76 µM | RXF 393 39.8 µM | SNB-19 > 100 µM | 786-0 66.8 µM | TK-10 42.4 µM

O=C(O)/C(Cl)=C(\Cl)C(=O)c1ccccc1
inactive: M14 > 100 µM | EKVX > 100 µM | NCI-H460 > 100 µM | A498 > 100 µM | SN12C > 100 µM | OVCAR-8 > 100 µM | U-251 > 100 µM | SK-MEL-2 > 100 µM | A549 > 100 µM | COLO 205 > 100 µM | SW-620 > 100 µM | NCI-H226 > 100 µM | RXF 393 > 100 µM | SNB-19 > 100 µM | 786-0 > 100 µM | TK-10 > 100 µM

CC(=O)c1cc([N+](=O)[O-])ccc1OCC(=O)O
inactive: M14 > 100 µM | EKVX > 100 µM | NCI-H460 > 100 µM | A498 > 100 µM | SN12C > 100 µM | OVCAR-8 > 100 µM | U-251 > 100 µM | SK-MEL-2 > 100 µM | A549 > 100 µM | COLO 205 > 100 µM | SW-620 > 100 µM | NCI-H226 > 100 µM | RXF 393 > 100 µM | SNB-19 > 100 µM | 786-0 > 100 µM | TK-10 > 100 µM

O=C1C(=O)C(CCCO)(CCCO)CCCCCCCCC1(CCCO)CCCO
inactive: M14 37.4 µM | Hs-578T 57.7 µM | EKVX > 100 µM | NCI-H460 > 100 µM | A498 > 100 µM | SN12C > 100 µM | OVCAR-8 > 100 µM | U-251 66.5 µM | SK-MEL-2 46.8 µM | A549 45.8 µM | COLO 205 > 100 µM | SW-620 > 100 µM | NCI-H226 > 100 µM | RXF 393 17.3 µM | SNB-19 61.5 µM | 786-0 > 100 µM | TK-10 87.3 µM | NCI/ADR-RES > 100 µM

O=C1OC(c2ccccc2)(c2ccccc2)c2ccc3ccc(F)cc3c21
inactive: M14 > 100 µM | EKVX 53.3 µM | NCI-H460 > 100 µM | A498 > 100 µM | SN12C > 100 µM | OVCAR-8 > 100 µM | U-251 77.1 µM | SK-MEL-2 > 100 µM | A549 19.3 µM | COLO 205 > 100 µM | SW-620 23.9 µM | NCI-H226 > 100 µM | RXF 393 > 100 µM | SNB-19 > 100 µM | 786-0 > 100 µM | TK-10 > 100 µM

CC(C)c1cccc2sc(NC(=O)C(=O)CC(=O)c3ccc(F)cc3)nc12
inactive: M14 > 100 µM | EKVX > 100 µM | NCI-H460 > 100 µM | A498 > 100 µM | SN12C > 100 µM | OVCAR-8 > 100 µM | U-251 > 100 µM | SK-MEL-2 > 100 µM | A549 > 100 µM | COLO 205 > 100 µM | SW-620 > 100 µM | NCI-H226 > 100 µM | RXF 393 > 100 µM | SNB-19 > 100 µM | 786-0 > 100 µM | TK-10 > 100 µM

CC1=C(C(=O)NCc2ccccc2)C(c2ccc(C3C(C(=O)NCc4ccccc4)=C(C)NC(C)=C3C(=O)NCc3ccccc3)cc2)C(C(=O)NCc2ccccc2)=C(C)N1
inactive: M14 11.8 µM | EKVX 14.9 µM | NCI-H460 28.6 µM | A498 17.7 µM | SN12C 6.5 µM | OVCAR-8 7.03 µM | U-251 3.96 µM | SK-MEL-2 18.4 µM | A549 24.3 µM | COLO 205 7.57 µM | SW-620 10.2 µM | NCI-H226 17.5 µM | RXF 393 16.6 µM | SNB-19 15.6 µM | 786-0 15.6 µM | TK-10 20.7 µM

O=C(NC(=S)NC(=O)c1cc(O)c(O)c(O)c1)c1cc(O)c(O)c(O)c1
inactive: M14 32.1 µM | NCI-H460 26.5 µM | A498 > 100 µM | SN12C 24.7 µM | OVCAR-8 20.7 µM | U-251 27 µM | SK-MEL-2 20.1 µM | A549 37.1 µM | COLO 205 22.6 µM | SW-620 27.7 µM | MDA-MB-231 28.8 µM | NCI-H226 39.1 µM | RXF 393 18 µM | SNB-19 24.2 µM | 786-0 20 µM | TK-10 28.4 µM | NCI/ADR-RES 23.4 µM

CC(C)(C)OC(=O)NC(Cc1ccccc1)C(=S)N1CCCC1 (configuration not stated)
inactive: M14 > 100 µM | EKVX 52.6 µM | NCI-H460 > 93.8 µM | A498 > 100 µM | SN12C > 100 µM | OVCAR-8 > 100 µM | U-251 > 100 µM | SK-MEL-2 > 100 µM | A549 > 100 µM | COLO 205 > 100 µM | SW-620 > 100 µM | NCI-H226 > 100 µM | RXF 393 58.9 µM | SNB-19 > 100 µM | 786-0 > 100 µM | TK-10 > 100 µM

NCCCNCCSP(=O)(O)O [AMIFOSTINE]
inactive: EKVX > 750 µM | NCI-H460 > 750 µM | A498 > 75 µM | SN12C > 750 µM | OVCAR-8 > 511 µM | U-251 > 750 µM | SK-MEL-2 > 242 µM | A549 > 519 µM | COLO 205 385 µM | SW-620 > 750 µM | NCI-H226 > 703 µM | RXF 393 > 736 µM | SNB-19 > 750 µM | NCI/ADR-RES > 750 µM

— ChEMBL document CHEMBL1201862, “PubChem BioAssay data set” (2004)
